*1 amine or outer side, *2 acyl side, *3 side chain or, on linkers, in order; H or OH if unused. Where a SMILES comes first, the peptide text is derived from it. Side-chain parts run from the residue outwards. [ ]: non-standard residue; d: D form. The star is where a group is joined. γGlu = O=C(O)[C@H](CCC(=O)[*:2])N[*:1]; Palmitoyl = CCCCCCCCCCCCCCCC(=O)*; hSer = N[C@@H](CCO)C(=O)O; Dab = NCC[C@H](N)C(=O)O; Aib = CC(C)(N)C(=O)O
Tests used:
Assay type in all cases: cell-based
GIP receptor = target: T1, GIP receptor (Homo sapiens, UniProt P48546); assay: cAMP induction, firefly luciferase-based reporter assay in HEK293 cells co-transfected with GIP receptor; conditions: EC50 at GIP Receptor
T1 construct: expressed in transfected cells; host or cells: HEK293
T1 sequence (P48546 22-466): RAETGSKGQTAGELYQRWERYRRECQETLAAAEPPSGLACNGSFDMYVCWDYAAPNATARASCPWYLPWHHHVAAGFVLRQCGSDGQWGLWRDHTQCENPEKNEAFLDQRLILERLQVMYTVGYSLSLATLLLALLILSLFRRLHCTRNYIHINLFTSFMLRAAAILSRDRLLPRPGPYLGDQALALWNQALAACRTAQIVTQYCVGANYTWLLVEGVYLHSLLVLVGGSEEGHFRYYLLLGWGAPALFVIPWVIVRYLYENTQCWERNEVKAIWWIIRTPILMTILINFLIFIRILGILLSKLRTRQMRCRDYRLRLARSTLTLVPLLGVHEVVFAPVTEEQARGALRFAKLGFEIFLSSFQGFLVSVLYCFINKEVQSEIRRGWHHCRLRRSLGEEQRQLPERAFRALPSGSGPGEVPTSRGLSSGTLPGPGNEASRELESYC
From the text: (§1) This example describes an exemplary method of testing the biological activity of the peptides of the present disclosures, which method involves assaying cAMP synthesis.

glucagon receptor = target: T2, glucagon receptor (Homo sapiens, UniProt P47871); assay: cAMP induction, firefly luciferase-based reporter assay in HEK293 cells co-transfected with glucagon receptor; conditions: EC50 at Glucagon Receptor
T2 construct: expressed in transfected cells; host or cells: HEK293
T2 sequence (P47871 26-477): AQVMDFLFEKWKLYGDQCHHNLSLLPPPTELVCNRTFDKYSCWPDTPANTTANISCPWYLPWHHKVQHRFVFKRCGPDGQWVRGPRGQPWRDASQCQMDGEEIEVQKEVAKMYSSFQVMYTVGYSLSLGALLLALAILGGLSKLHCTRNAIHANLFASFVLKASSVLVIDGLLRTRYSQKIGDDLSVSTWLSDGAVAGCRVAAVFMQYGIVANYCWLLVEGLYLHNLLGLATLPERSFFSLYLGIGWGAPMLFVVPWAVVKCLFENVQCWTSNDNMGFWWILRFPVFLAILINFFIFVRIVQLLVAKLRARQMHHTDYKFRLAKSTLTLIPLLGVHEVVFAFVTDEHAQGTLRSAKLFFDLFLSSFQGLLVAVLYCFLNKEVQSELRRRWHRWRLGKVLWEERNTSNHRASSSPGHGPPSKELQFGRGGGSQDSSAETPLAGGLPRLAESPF
From the text: as §1

GLP-1 receptor = target: T3, GLP-1 receptor (Homo sapiens, UniProt P43220); assay: cAMP induction, firefly luciferase-based reporter assay in HEK293 cells co-transfected with GLP-1 receptor; conditions: EC50 at GLP-1 Receptor
T3 construct: expressed in transfected cells; host or cells: HEK293
T3 sequence (P43220 24-463): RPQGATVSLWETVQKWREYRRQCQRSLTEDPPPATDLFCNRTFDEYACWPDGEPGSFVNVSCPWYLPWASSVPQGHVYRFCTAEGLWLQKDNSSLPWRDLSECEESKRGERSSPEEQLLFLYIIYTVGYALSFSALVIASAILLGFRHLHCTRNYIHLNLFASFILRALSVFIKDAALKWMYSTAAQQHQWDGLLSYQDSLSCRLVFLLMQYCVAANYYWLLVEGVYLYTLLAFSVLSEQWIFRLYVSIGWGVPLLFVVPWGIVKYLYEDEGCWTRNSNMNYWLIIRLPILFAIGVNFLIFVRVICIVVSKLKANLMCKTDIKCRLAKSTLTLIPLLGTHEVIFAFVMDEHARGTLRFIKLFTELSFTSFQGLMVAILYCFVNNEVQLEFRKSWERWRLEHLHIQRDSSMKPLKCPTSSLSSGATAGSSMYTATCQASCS
From the text: as §1

[1] = Table 3, analogs of SEQ ID NO: 18 varying at position 3
[2] = Table 2, analogs of SEQ ID NO: 18 varying at positions 16-21
[3] = Table 5, analogs of SEQ ID NO: 10

CCCCCCCCCCCCCCCC(=O)N[C@@H](CCC(=O)NCCCC[C@H](NC(=O)[C@H](CC(=O)O)NC(=O)[C@H](CO)NC(=O)[C@@H](NC(=O)[C@H](Cc1ccccc1)NC(=O)[C@@H](NC(=O)CNC(=O)[C@H](CCO)NC(=O)C(C)(C)NC(=O)[C@@H](N)Cc1c[nH]cn1)[C@@H](C)O)[C@@H](C)O)C(=O)N[C@@H](CO)C(=O)N[C@@H](CCCCN)C(=O)N[C@@H](Cc1ccc(O)cc1)C(=O)N[C@@H](CC(C)C)C(=O)N[C@@H](CCC(=O)O)C(=O)N[C@@H](CCC(=O)O)C(=O)N[C@@H](CCCNC(=N)N)C(=O)N[C@@H](C)C(=O)N[C@@H](C)C(=O)N[C@@H](CCC(N)=O)C(=O)N[C@@H](CCC(=O)O)C(=O)N[C@@H](Cc1ccccc1)C(=O)N[C@H](C(=O)N[C@@H](CCC(N)=O)C(=O)N[C@@H](Cc1c[nH]c2ccccc12)C(=O)N[C@@H](CC(C)C)C(=O)N[C@@H](CC(C)C)C(=O)N[C@@H](CCC(=O)O)C(=O)NCC(=O)NCC(=O)N1CCC[C@H]1C(=O)N[C@@H](CO)C(=O)N[C@@H](CO)C(=O)NCC(=O)N[C@@H](C)C(=O)N1CCC[C@H]1C(=O)N1CCC[C@H]1C(=O)N1CCC[C@H]1C(=O)N[C@@H](CO)C(N)=O)C(C)C)C(=O)O [compound 33] (H-H[Aib][hSer]GTFTSDK([γGlu-Palmitoyl])SKYLEERAAQEFVQWLLEGGPSSGAPPPS-NH2)
EC50 (GIP receptor; [1]): 4 pM | EC50 (glucagon receptor; [1]): 15 pM | EC50 (GLP-1 receptor; [1]): 2 pM

CCCCCCCCCCCCCCCC(=O)N[C@@H](CCC(=O)NCCCC[C@H](NC(=O)[C@H](CC(=O)O)NC(=O)[C@H](CO)NC(=O)[C@@H](NC(=O)[C@H](Cc1ccccc1)NC(=O)[C@@H](NC(=O)CNC(=O)[C@@H](NC(=O)C(C)(C)NC(=O)[C@@H](N)Cc1c[nH]cn1)C(C)C)[C@@H](C)O)[C@@H](C)O)C(=O)N[C@@H](CO)C(=O)N[C@@H](CCCCN)C(=O)N[C@@H](Cc1ccc(O)cc1)C(=O)N[C@@H](CC(C)C)C(=O)N[C@@H](CCC(=O)O)C(=O)N[C@@H](CCC(=O)O)C(=O)N[C@@H](CCCNC(=N)N)C(=O)N[C@@H](C)C(=O)N[C@@H](C)C(=O)N[C@@H](CCC(N)=O)C(=O)N[C@@H](CCC(=O)O)C(=O)N[C@@H](Cc1ccccc1)C(=O)N[C@H](C(=O)N[C@@H](CCC(N)=O)C(=O)N[C@@H](Cc1c[nH]c2ccccc12)C(=O)N[C@@H](CC(C)C)C(=O)N[C@@H](CC(C)C)C(=O)N[C@@H](CCC(=O)O)C(=O)NCC(=O)NCC(=O)N1CCC[C@H]1C(=O)N[C@@H](CO)C(=O)N[C@@H](CO)C(=O)NCC(=O)N[C@@H](C)C(=O)N1CCC[C@H]1C(=O)N1CCC[C@H]1C(=O)N1CCC[C@H]1C(=O)N[C@@H](CO)C(N)=O)C(C)C)C(=O)O [compound 37] (H-H[Aib]VGTFTSDK([γGlu-Palmitoyl])SKYLEERAAQEFVQWLLEGGPSSGAPPPS-NH2; N-terminus assumed)
EC50 (GIP receptor; [1]): 2 pM | EC50 (glucagon receptor; [1]): 29 pM | EC50 (GLP-1 receptor; [1]): 2 pM

CCCCCCCCCCCCCCCC(=O)N[C@@H](CCC(=O)NCCCC[C@H](NC(=O)[C@H](CC(=O)O)NC(=O)[C@H](CO)NC(=O)[C@@H](NC(=O)[C@H](Cc1ccccc1)NC(=O)[C@@H](NC(=O)CNC(=O)[C@H](CCC(N)=O)NC(=O)C(C)(C)NC(=O)[C@@H](N)Cc1c[nH]cn1)[C@@H](C)O)[C@@H](C)O)C(=O)N[C@@H](CO)C(=O)N[C@@H](CCCCN)C(=O)N[C@@H](Cc1ccc(O)cc1)C(=O)N[C@@H](CC(C)C)C(=O)N[C@@H](CC(=O)O)C(=O)N[C@@H](CCC(=O)O)C(=O)N[C@@H](CCCNC(=N)N)C(=O)N[C@@H](C)C(=O)N[C@@H](C)C(=O)N[C@@H](CCCCN)C(=O)N[C@@H](CC(=O)O)C(=O)N[C@@H](Cc1ccccc1)C(=O)N[C@H](C(=O)N[C@@H](CCC(N)=O)C(=O)N[C@@H](Cc1c[nH]c2ccccc12)C(=O)N[C@@H](CC(C)C)C(=O)N[C@@H](CC(C)C)C(=O)N[C@@H](CC(=O)O)C(=O)NCC(=O)NCC(=O)N1CCC[C@H]1C(=O)N[C@@H](CO)C(=O)N[C@@H](CO)C(=O)NCC(=O)N[C@@H](C)C(=O)N1CCC[C@H]1C(=O)N1CCC[C@H]1C(=O)N1CCC[C@H]1C(=O)N[C@@H](CO)C(N)=O)C(C)C)C(=O)O [compound 20] (H-H[Aib]QGTFTSDK([γGlu-Palmitoyl])SKYLDERAAKDFVQWLLDGGPSSGAPPPS-NH2; N-terminus assumed)
EC50 (GIP receptor; [2]): 5 pM | EC50 (glucagon receptor; [2]): 6 pM | EC50 (GLP-1 receptor; [2]): 10 pM

CCCCCCCCCCCCCCCC(=O)N[C@@H](CCC(=O)NCCCC[C@H](NC(=O)[C@H](CC(=O)O)NC(=O)[C@H](CO)NC(=O)[C@@H](NC(=O)[C@H](Cc1ccccc1)NC(=O)[C@@H](NC(=O)CNC(=O)[C@H](CCNC(C)=O)NC(=O)C(C)(C)NC(=O)[C@@H](N)Cc1c[nH]cn1)[C@@H](C)O)[C@@H](C)O)C(=O)N[C@@H](CO)C(=O)N[C@@H](CCCCN)C(=O)N[C@@H](Cc1ccc(O)cc1)C(=O)N[C@@H](CC(C)C)C(=O)N[C@@H](CCC(=O)O)C(=O)N[C@@H](CCC(=O)O)C(=O)N[C@@H](CCCNC(=N)N)C(=O)N[C@@H](C)C(=O)N[C@@H](C)C(=O)N[C@@H](CCC(N)=O)C(=O)N[C@@H](CCC(=O)O)C(=O)N[C@@H](Cc1ccccc1)C(=O)N[C@H](C(=O)N[C@@H](CCC(N)=O)C(=O)N[C@@H](Cc1c[nH]c2ccccc12)C(=O)N[C@@H](CC(C)C)C(=O)N[C@@H](CC(C)C)C(=O)N[C@@H](CCC(=O)O)C(=O)NCC(=O)NCC(=O)N1CCC[C@H]1C(=O)N[C@@H](CO)C(=O)N[C@@H](CO)C(=O)NCC(=O)N[C@@H](C)C(=O)N1CCC[C@H]1C(=O)N1CCC[C@H]1C(=O)N1CCC[C@H]1C(=O)N[C@@H](CO)C(N)=O)C(C)C)C(=O)O [compound 36] (H-H[Aib][Dab](Ac)GTFTSDK([γGlu-Palmitoyl])SKYLEERAAQEFVQWLLEGGPSSGAPPPS-NH2; N-terminus assumed)
EC50 (GIP receptor; [1]): 14 pM | EC50 (glucagon receptor; [1]): 9 pM | EC50 (GLP-1 receptor; [1]): 3 pM

CCCCCCCCCCCCCCCC(=O)N[C@@H](CCC(=O)NCCCC[C@H](NC(=O)[C@H](CC(=O)O)NC(=O)[C@H](CO)NC(=O)[C@@H](NC(=O)[C@H](Cc1ccccc1)NC(=O)[C@@H](NC(=O)CNC(=O)[C@H](CCC(N)=O)NC(=O)C(C)(C)NC(=O)[C@@H](N)Cc1c[nH]cn1)[C@@H](C)O)[C@@H](C)O)C(=O)N[C@@H](CO)C(=O)N[C@@H](CCCCN)C(=O)N[C@@H](Cc1ccc(O)cc1)C(=O)N[C@@H](CC(C)C)C(=O)N[C@@H](CC(=O)O)C(=O)N[C@@H](CCC(=O)O)C(=O)N[C@@H](CCCNC(=N)N)C(=O)N[C@@H](C)C(=O)N[C@@H](C)C(=O)N[C@@H](Cc1c[nH]cn1)C(=O)N[C@@H](CC(=O)O)C(=O)N[C@@H](Cc1ccccc1)C(=O)N[C@H](C(=O)N[C@@H](CCC(N)=O)C(=O)N[C@@H](Cc1c[nH]c2ccccc12)C(=O)N[C@@H](CC(C)C)C(=O)N[C@@H](CC(C)C)C(=O)N[C@@H](CC(=O)O)C(=O)NCC(=O)NCC(=O)N1CCC[C@H]1C(=O)N[C@@H](CO)C(=O)N[C@@H](CO)C(=O)NCC(=O)N[C@@H](C)C(=O)N1CCC[C@H]1C(=O)N1CCC[C@H]1C(=O)N1CCC[C@H]1C(=O)N[C@@H](CO)C(N)=O)C(C)C)C(=O)O [compound 19] (H-H[Aib]QGTFTSDK([γGlu-Palmitoyl])SKYLDERAAHDFVQWLLDGGPSSGAPPPS-NH2)
EC50 (GIP receptor; [2]): 15 pM | EC50 (glucagon receptor; [2]): 12 pM | EC50 (GLP-1 receptor; [2]): 18 pM

CCCCCCCCCCCCCCCC(=O)N[C@@H](CCC(=O)NCCCC[C@H](NC(=O)[C@H](CC(=O)O)NC(=O)[C@H](CO)NC(=O)[C@@H](NC(=O)[C@H](Cc1ccccc1)NC(=O)[C@@H](NC(=O)CNC(=O)[C@H](CCC(N)=O)NC(=O)C(C)(C)NC(=O)[C@@H](N)Cc1c[nH]cn1)[C@@H](C)O)[C@@H](C)O)C(=O)N[C@@H](CO)C(=O)N[C@@H](CCCCN)C(=O)N[C@@H](Cc1ccc(O)cc1)C(=O)N[C@@H](CC(C)C)C(=O)N[C@@H](CC(=O)O)C(=O)N[C@@H](CCC(=O)O)C(=O)N[C@@H](CCCNC(=N)N)C(=O)N[C@@H](C)C(=O)N[C@@H](C)C(=O)N[C@@H](CCC(N)=O)C(=O)N[C@@H](CC(=O)O)C(=O)N[C@@H](Cc1ccccc1)C(=O)N[C@H](C(=O)N[C@@H](CCC(N)=O)C(=O)N[C@@H](Cc1c[nH]c2ccccc12)C(=O)N[C@@H](CC(C)C)C(=O)N[C@@H](CC(C)C)C(=O)N[C@@H](CC(=O)O)C(=O)N[C@H](C(=O)NCC(=O)N1CCC[C@H]1C(=O)N[C@@H](CO)C(=O)N[C@@H](CO)C(=O)NCC(=O)N[C@@H](C)C(=O)N1CCC[C@H]1C(=O)N1CCC[C@H]1C(=O)N1CCC[C@H]1C(=O)N[C@@H](CO)C(N)=O)C(C)C)C(C)C)C(=O)O [compound 63] (H-H[Aib]QGTFTSDK([γGlu-Palmitoyl])SKYLDERAAQDFVQWLLDVGPSSGAPPPS-NH2; N-terminus assumed)
EC50 (GIP receptor; [3]): 55 pM | EC50 (glucagon receptor; [3]): 4 pM | EC50 (GLP-1 receptor; [3]): 3 pM

Source: patent US9340600B2 (Indiana University Research and Technology Corporation, priority 2012, dated 2016)
